According to patent publication US7732602B2, “Herbicide composition” (Sumitomo Chemical Company, Limited, priority 2001, dated 2010):
Structures can show the parent of a compound that is named as a salt.

Legend:
Assay type in all cases: in vivo
yellow nutsedge = experiment: Herbicide effect, foliar spray on yellow nutsedge grown in pots (Test Example 1); design: key: a level was taken “0” when completely or almost no difference was observed between the growth behavior of a test weed at the time of observation and that of untreated weed; a level was taken “10” when a test weed completely died or the growth of that was completely inhibited; conditions: 5 days after treatment, levels 0-10
Procedure: (§1) Evaluation of phytotoxicity against a crop was shown by “no” when almost no phytotoxicity was observed, “low” when a low level phytotoxicity was observed, “medium” when a medium level phytotoxicity was observed and “high” when a high level phytotoxicity was observed.
(§2) A plastic pot of 11 cm in diameter and 8 cm in depth was filled with field soil. A tuber of yellow nutsedge was buried and grown in a greenhouse for 28 days.
(§3) An emulsion of Compound A-1 was prepared by sufficiently mixing 5 parts of Compound A-1, 6 parts of Sorpol 3005X (surfactant, produced by Toho Chemical) and 89 parts of xylene.
(§4) Each of • (a) single use of an emulsion of Compound A-1, • (b) single use of a solution of Glyphosate isopropylamine salt (commercial name: Roundup, produced by Nippon Monsanto, containing 41% of Glyphosate isopropylamine salt), • (c) single use of a solution of Gltfosinate-Ammonium (commercial name: Basta, produced by Hoechst Schering AgrEvo GmbH, containing 18.5% of Glufosinate-Ammonium), • (d) a mixed composition of an emulsion of Compound A-1 and a solution of Glyphosate isopropylamine salt, and • (e) a mixed composition of an emulsion of Compound A-1 and a solution of Glufosinate-Ammonium were diluted with water containing 1% Agri-dex (produced by Helena). Respective dilutions were uniformly sprayed from upper side onto foliages of yellow nutsedge grown as described above with a small sprayer such that the amounts of the active ingredients were the amounts shown in Table 4. Immediately after the treatment with the test compounds, seeds of corn, soybean and cotton were sown.
(§5) After the treatment, they were raised in a greenhouse for 5 days and the effect against weeds was evaluated. In addition, after 14 days of the treatment, the phytotoxicity to corn, soybean and cotton was evaluated.

corn = experiment: Phytotoxicity to corn sown immediately after treatment (Test Example 1); design: key: “no” when almost no phytotoxicity was observed; “low” when a low level phytotoxicity was observed; “medium” when a medium level phytotoxicity was observed; “high” when a high level phytotoxicity was observed; conditions: 14 days after treatment
Procedure: as §1, §2, §3, §4, §5

soybean = experiment: Phytotoxicity to soybean sown immediately after treatment (Test Example 1); design: key: “no” when almost no phytotoxicity was observed; “low” when a low level phytotoxicity was observed; “medium” when a medium level phytotoxicity was observed; “high” when a high level phytotoxicity was observed; conditions: 14 days after treatment
Procedure: as §1, §2, §3, §4, §5

cotton = experiment: Phytotoxicity to cotton sown immediately after treatment (Test Example 1); design: key: “no” when almost no phytotoxicity was observed; “low” when a low level phytotoxicity was observed; “medium” when a medium level phytotoxicity was observed; “high” when a high level phytotoxicity was observed; conditions: 14 days after treatment
Procedure: as §1, §2, §3, §4, §5

With `CP(=O)(O)CCC(N)C(=O)O.N` (racemic) [Glufosinate-Ammonium, ammonium DL-homoalanin-4-yl(methyl)phosphinate] as the compound, how does the “Herbicide Effect” value (yellow nutsedge; 100 g/ha) read?
The value was 0.

And the “Herbicide Effect” value (yellow nutsedge; 500 g/ha)?
Its value is 2.

What about the “Phytotoxicity Cr” value (corn; 100 g/ha) of the same compound?
The value was “no”.

And the “Phytotoxicity Cr” value (corn; 500 g/ha)?
The value was “no”.

What about the “Phytotoxicity Be” value (soybean; 100 g/ha) of the same compound?
Its value is “no”.

What about the “Phytotoxicity Be” value (soybean; 500 g/ha) of the same compound?
The value was “no”.

And the “Phytotoxicity Ct” value (cotton; 100 g/ha)?
Its value is “no”.

What about the “Phytotoxicity Ct” value (cotton; 500 g/ha) of the same compound?
The value was “no”.

`O=C(O)CNCP(=O)(O)O` [Glyphosate Isopropylamine Salt, N-(phosphonomethyl)glycine] was tested. Which “Herbicide Effect” value (yellow nutsedge; 200 g/ha) did it give?
The value was 0.

What about the “Herbicide Effect” value (yellow nutsedge; 1000 g/ha) of the same compound?
Its value is 0.

And the “Phytotoxicity Cr” value (corn; 200 g/ha)?
Its value is “no”.

What about the “Phytotoxicity Cr” value (corn; 1000 g/ha) of the same compound?
Its value is “no”.

What about the “Phytotoxicity Be” value (soybean; 200 g/ha) of the same compound?
The value was “no”.

And the “Phytotoxicity Be” value (soybean; 1000 g/ha)?
The value was “no”.

And the “Phytotoxicity Ct” value (cotton; 200 g/ha)?
Its value is “no”.

And the “Phytotoxicity Ct” value (cotton; 1000 g/ha)?
Its value is “no”.
